Data published in PMC6681697, “One-Step ^18F-Labeling and Preclinical Evaluation of Prostate-Specific Membrane Antigen Trifluoroborate Probes for Cancer Imaging” (Journal of Nuclear Medicine, 2019).
Values belong to the compound of their own block, whether it stands above or below them.

Columns and labels:
[1] = Distribution coefficient (LogD7.4), shake flask method; type: physicochemical; conditions: n-octanol / phosphate buffer 0.1 M pH 7.4; n = 3
Experimental: LogD7.4 values were measured using the shake flask method. Briefly, an aliquot of ^18F-labeled tracer was added to a vial containing 2.5 mL of n-octanol and 2.5 mL of phosphate buffer (0.1 M, pH 7.4). The mixture was vortexed for 2 min and then centrifuged at 3,000g for 10 min. A sample of the n-octanol (0.1 mL) and buffer (0.1 mL) layers was counted using a γ-counter. Values of LogD7.4 were calculated using the following equation: LogD7.4 = log10 [(counts in n-octanol phase)/(counts in buffer phase)].

[2] = target: T1, PSMA (Homo sapiens, UniProt Q04609); assay: In vitro competition binding assay on LNCaP cells with ^18F-DCFPyL as radioligand
T1 construct: because it expresses PSMA endogenously and is commonly used to evaluate PSMA-targeting radiotracers; endogenous in cells; host or cells: LNCaP cells
T1 sequence (Q04609 whole entry): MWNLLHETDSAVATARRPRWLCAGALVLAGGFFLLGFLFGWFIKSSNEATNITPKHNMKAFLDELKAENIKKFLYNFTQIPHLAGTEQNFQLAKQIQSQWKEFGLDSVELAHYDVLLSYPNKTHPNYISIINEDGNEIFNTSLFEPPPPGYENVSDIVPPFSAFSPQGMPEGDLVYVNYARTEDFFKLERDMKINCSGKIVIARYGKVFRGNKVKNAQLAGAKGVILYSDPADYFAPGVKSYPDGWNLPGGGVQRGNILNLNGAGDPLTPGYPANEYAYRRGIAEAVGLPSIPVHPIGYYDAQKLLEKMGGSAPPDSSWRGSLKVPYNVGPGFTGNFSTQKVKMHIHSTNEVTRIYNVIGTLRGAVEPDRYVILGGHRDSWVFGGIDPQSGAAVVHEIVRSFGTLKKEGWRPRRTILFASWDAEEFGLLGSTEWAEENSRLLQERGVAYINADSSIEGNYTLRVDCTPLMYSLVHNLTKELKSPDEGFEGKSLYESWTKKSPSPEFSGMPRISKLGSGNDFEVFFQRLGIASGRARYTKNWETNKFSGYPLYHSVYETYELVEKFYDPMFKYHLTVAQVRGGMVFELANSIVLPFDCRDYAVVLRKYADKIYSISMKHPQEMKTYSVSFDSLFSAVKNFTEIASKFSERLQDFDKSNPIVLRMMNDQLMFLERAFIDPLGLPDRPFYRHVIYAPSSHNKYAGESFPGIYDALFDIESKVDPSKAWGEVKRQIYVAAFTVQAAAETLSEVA
Experimental: LNCaP cells were plated onto a 24-well poly-D-lysine coated plate for 48 h (400,000/well). […] Nonspecific binding was determined in the presence of 10 μM unlabeled DCFPyL. The assay mixtures were incubated for 1 h at 37°C with gentle agitation followed by 2 washes with cold HEPES buffered saline. A trypsin solution (0.25%, 400 μL) was then added to each well to harvest the cells. Radioactivity was measured by γ-counting, and Ki values were calculated using the “1 site—fit Ki” built-in model in Prism 7 (GraphPad).

[3] = tested on: LNCaP xenografts; assay: Ex vivo biodistribution and blocking studies in mice bearing LNCaP xenografts; conditions: for tumor uptake compared with ^18F-DCFPyL: 1-way ANOVA, Dunnett test; for tumor uptake: LNCaP tumor
Experimental: Imaging and biodistribution experiments were performed using NODSCID IL2RγKO male mice. All experiments were conducted according to the guidelines established by the Canadian Council on Animal Care and approved by the Animal Ethics Committee of the University of British Columbia. Mice were anesthetized by inhalation with 2% isoflurane in oxygen and implanted subcutaneously with 1 × 10^7 LNCaP cells behind the left shoulder. The mice were imaged or used in biodistribution studies once the tumor reached 5–8 mm in diameter (5–6 wk).
For biodistribution and blocking studies, the mice were injected with 1–3 MBq of radiotracer. At 60 min, the mice were anesthetized with 2% isoflurane inhalation and euthanized by CO2 inhalation. Blood was withdrawn by cardiac puncture, and the organs and tissues of interest were collected, weighed, and counted using an automatic γ-counter (PerkinElmer). Uptake values were expressed as the percentage of the injected dose per gram of tissue (%ID/g).
A standard 1-way ANOVA was performed to determine whether statistically significant differences in tumor uptake occurred between radiotracers. Each radiotracer was compared with ^18F-DCFPyL using the Dunnett test (a many-to-one t test comparison). This analysis was also performed for kidney and blood activity and for tumor-to-blood and tumor-to-muscle ratios. Reported P values were adjusted for multiple comparisons. The analysis was performed using Prism 8 (GraphPad). […]
Statistical analyses were performed using GradPad prism 7. Multiple t tests were performed to compare biodistribution in unblocked and blocked mice, multiple comparisons were corrected using the Holm-Sidak method. The difference was considered statistically significant when p value was < 0.05.
Supplemental Table 1 – Complete biodistribution study for compounds [18F]1–3 […]
Tissue 1h 1h blocked 1h 1h blocked 1h 1h blocked
(%ID/g) n = 8 n = 4 n = 6 n = 4 n = 8 n = 5 […]
(1 picture or pasted object on this page, not shown here)

[4] = 1 h blocked (coinjection of DCFPyL 0.5 mg)

logD at 2 min [1]: -3.34 ± 0.02
Ki [2]: 27.6 ± 3.8 nM
T/B (tumor-to-blood ratio) ([3]; 1 h after injection, unblocked): 8.70 ± 1.74
T/K (tumor-to-kidney ratio) ([3]; 1 h after injection, unblocked): 0.04 ± 0.02
T/M (tumor-to-muscle ratio) ([3]; 1 h after injection, unblocked): 23.40 ± 5.00
adrenal uptake ([3]; 1 h after injection, unblocked): 6.66 ± 2.33 %ID/g
blood uptake ([3]; 1 h after injection, unblocked): 0.74 ± 0.15 %ID/g
bone uptake ([3]; 1 h after injection, unblocked): 0.76 ± 0.57 %ID/g
brain uptake ([3]; 1 h after injection, unblocked): 0.05 ± 0.01 %ID/g
fat uptake ([3]; 1 h after injection, unblocked): 1.05 ± 0.49 %ID/g
heart uptake ([3]; 1 h after injection, unblocked): 0.34 ± 0.08 %ID/g
intestine uptake ([3]; 1 h after injection, unblocked): 0.48 ± 0.22 %ID/g
kidney uptake ([3]; 1 h after injection, unblocked): 164.33 ± 50.20 %ID/g
liver uptake ([3]; 1 h after injection, unblocked): 1.28 ± 0.18 %ID/g
lung uptake ([3]; 1 h after injection, unblocked): 1.67 ± 0.47 %ID/g
muscle uptake ([3]; 1 h after injection, unblocked): 0.28 ± 0.07 %ID/g
pancreas uptake ([3]; 1 h after injection, unblocked): 0.68 ± 0.50 %ID/g
spleen uptake ([3]; 1 h after injection, unblocked): 3.36 ± 1.08 %ID/g
stomach uptake ([3]; 1 h after injection, unblocked): 0.15 ± 0.03 %ID/g
testes uptake ([3]; 1 h after injection, unblocked): 0.67 ± 0.27 %ID/g
tumor uptake compared with ^18F-DCFPyL ([3]; 1 h after injection): lower tumor uptake than ^18F-DCFPyL
T/B (tumor-to-blood ratio) [3, 4]: 0.75 ± 0.18
T/K (tumor-to-kidney ratio) [3, 4]: 0.11 ± 0.03
T/M (tumor-to-muscle ratio) [3, 4]: 1.91 ± 0.46
adrenal uptake [3, 4]: 0.26 ± 0.15 %ID/g
blood uptake [3, 4]: 0.24 ± 0.11 %ID/g
bone uptake [3, 4]: 0.56 ± 0.20 %ID/g
brain uptake [3, 4]: 0.02 ± 0.01 %ID/g
fat uptake [3, 4]: 0.04 ± 0.03 %ID/g
heart uptake [3, 4]: 0.09 ± 0.04 %ID/g
intestine uptake [3, 4]: 0.18 ± 0.04 %ID/g
kidney uptake [3, 4]: 1.62 ± 0.73 %ID/g
liver uptake [3, 4]: 0.90 ± 0.25 %ID/g
lung uptake [3, 4]: 0.19 ± 0.09 %ID/g
muscle uptake [3, 4]: 0.11 ± 0.08 %ID/g
pancreas uptake [3, 4]: 0.08 ± 0.03 %ID/g
spleen uptake [3, 4]: 0.13 ± 0.06 %ID/g
stomach uptake [3, 4]: 0.06 ± 0.02 %ID/g
testes uptake [3, 4]: 0.08 ± 0.03 %ID/g
tumor uptake ([3]; 1 h after injection, unblocked, listed as 4): 6.3 ± 0.8 %ID/g
tumor uptake ([3]; 1 h after injection, unblocked, listed as [18F]4): 6.26 ± 0.82 %ID/g
tumor uptake [3, 4]: 0.18 ± 0.11 %ID/g
SMILES: O=C(O)CC[C@H](NC(=O)N[C@@H](CCCCNC(=O)c1ccc(Cn2cc(C[n+]3ccc([B-](F)(F)F)cc3)nn2)nc1)C(=O)O)C(=O)O [^18F-4]

logD at 2 min [1]: -3.52 ± 0.21
Ki [2]: 1.14 ± 0.26 nM
T/B (tumor-to-blood ratio) ([3]; 1 h after injection, unblocked): 17.12 ± 5.40
T/K (tumor-to-kidney ratio) ([3]; 1 h after injection, unblocked): 0.21 ± 0.08
T/M (tumor-to-muscle ratio) ([3]; 1 h after injection, unblocked): 49.67 ± 28.45
adrenal uptake ([3]; 1 h after injection, unblocked): 2.89 ± 1.94 %ID/g
blood uptake ([3]; 1 h after injection, unblocked): 0.89 ± 0.42 %ID/g
bone uptake ([3]; 1 h after injection, unblocked): 0.34 ± 0.14 %ID/g
brain uptake ([3]; 1 h after injection, unblocked): 0.04 ± 0.01 %ID/g
fat uptake ([3]; 1 h after injection, unblocked): 0.83 ± 0.33 %ID/g
heart uptake ([3]; 1 h after injection, unblocked): 0.31 ± 0.11 %ID/g
intestine uptake ([3]; 1 h after injection, unblocked): 12.96 ± 4.61 %ID/g
kidney uptake ([3]; 1 h after injection, unblocked): 73.86 ± 35.21 %ID/g
liver uptake ([3]; 1 h after injection, unblocked): 1.14 ± 0.48 %ID/g
lung uptake ([3]; 1 h after injection, unblocked): 1.21 ± 0.48 %ID/g
muscle uptake ([3]; 1 h after injection, unblocked): 0.36 ± 0.18 %ID/g
pancreas uptake ([3]; 1 h after injection, unblocked): 0.30 ± 0.17 %ID/g
spleen uptake ([3]; 1 h after injection, unblocked): 3.21 ± 1.73 %ID/g
stomach uptake ([3]; 1 h after injection, unblocked): 0.37 ± 0.45 %ID/g
testes uptake ([3]; 1 h after injection, unblocked): 0.74 ± 0.55 %ID/g
tumor uptake compared with ^18F-DCFPyL ([3]; 1 h after injection): No statistically significant differences
T/B (tumor-to-blood ratio) [3, 4]: 0.95 ± 0.10
T/K (tumor-to-kidney ratio) [3, 4]: 0.41 ± 0.09
T/M (tumor-to-muscle ratio) [3, 4]: 2.85 ± 0.70
adrenal uptake [3, 4]: 0.34 ± 0.09 %ID/g
blood uptake [3, 4]: 0.44 ± 0.02 %ID/g
bone uptake [3, 4]: 0.17 ± 0.03 %ID/g
brain uptake [3, 4]: 0.02 ± 0.00 %ID/g
fat uptake [3, 4]: 0.16 ± 0.06 %ID/g
heart uptake [3, 4]: 0.15 ± 0.00 %ID/g
intestine uptake [3, 4]: 12.36 ± 0.55 %ID/g
kidney uptake [3, 4]: 1.04 ± 0.14 %ID/g
liver uptake [3, 4]: 0.67 ± 0.13 %ID/g
lung uptake [3, 4]: 0.39 ± 0.01 %ID/g
muscle uptake [3, 4]: 0.15 ± 0.02 %ID/g
pancreas uptake [3, 4]: 0.13 ± 0.06 %ID/g
spleen uptake [3, 4]: 0.21 ± 0.02 %ID/g
stomach uptake [3, 4]: 0.12 ± 0.10 %ID/g
testes uptake [3, 4]: 0.24 ± 0.05 %ID/g
tumor uptake ([3]; 1 h after injection, unblocked): 13.96 ± 5.20 %ID/g
tumor uptake [3, 4]: 0.41 ± 0.04 %ID/g
SMILES: C[N+](C)(Cc1cn(CC(=O)NC[C@H]2CC[C@H](C(=O)N[C@@H](Cc3ccc4ccccc4c3)C(=O)NCCCC[C@H](NC(=O)N[C@@H](CCC(=O)O)C(=O)O)C(=O)O)CC2)nn1)C[B-](F)(F)F [^18F-5]
intestinal activity compared with ^18F-DCFPyL ([3]; 1 h after injection): significantly higher intestinal activity than ^18F-DCFPyL

LogD7.4 [1]: most lipophilic compound of the series
logD at 2 min [1]: -2.28 ± 0.01
Ki [2]: 1.9 ± 0.68 nM
T/B (tumor-to-blood ratio) ([3]; 1 h after injection, unblocked): 19.80 ± 7.23
T/K (tumor-to-kidney ratio) ([3]; 1 h after injection, unblocked): 0.14 ± 0.02
T/M (tumor-to-muscle ratio) ([3]; 1 h after injection, unblocked): 72.20 ± 13.46
adrenal uptake ([3]; 1 h after injection, unblocked): 2.14 ± 0.61 %ID/g
blood uptake ([3]; 1 h after injection, unblocked): 0.68 ± 0.26 %ID/g
bone uptake ([3]; 1 h after injection, unblocked): 0.56 ± 0.14 %ID/g
brain uptake ([3]; 1 h after injection, unblocked): 0.03 ± 0.01 %ID/g
fat uptake ([3]; 1 h after injection, unblocked): 0.38 ± 0.14 %ID/g
heart uptake ([3]; 1 h after injection, unblocked): 0.22 ± 0.03 %ID/g
intestine uptake ([3]; 1 h after injection, unblocked): 23.05 ± 4.39 %ID/g
kidney uptake ([3]; 1 h after injection, unblocked): 83.22 ± 6.07 %ID/g
liver uptake ([3]; 1 h after injection, unblocked): 0.98 ± 0.22 %ID/g
lung uptake ([3]; 1 h after injection, unblocked): 1.05 ± 0.14 %ID/g
muscle uptake ([3]; 1 h after injection, unblocked): 0.17 ± 0.02 %ID/g
pancreas uptake ([3]; 1 h after injection, unblocked): 0.26 ± 0.06 %ID/g
spleen uptake ([3]; 1 h after injection, unblocked): 1.77 ± 0.70 %ID/g
stomach uptake ([3]; 1 h after injection, unblocked): 1.17 ± 1.35 %ID/g
testes uptake ([3]; 1 h after injection, unblocked): 0.33 ± 0.05 %ID/g
tumor uptake compared with ^18F-DCFPyL ([3]; 1 h after injection): No statistically significant differences
T/B (tumor-to-blood ratio) [3, 4]: 0.72 ± 0.43
T/K (tumor-to-kidney ratio) [3, 4]: 0.29 ± 0.07
T/M (tumor-to-muscle ratio) [3, 4]: 3.78 ± 0.17
adrenal uptake [3, 4]: 0.20 ± 0.04 %ID/g
blood uptake [3, 4]: 1.64 ± 2.58 %ID/g
bone uptake [3, 4]: 0.57 ± 0.37 %ID/g
brain uptake [3, 4]: 0.03 ± 0.03 %ID/g
fat uptake [3, 4]: 0.06 ± 0.02 %ID/g
heart uptake [3, 4]: 0.17 ± 0.07 %ID/g
intestine uptake [3, 4]: 24.50 ± 4.86 %ID/g
kidney uptake [3, 4]: 1.30 ± 0.25 %ID/g
liver uptake [3, 4]: 0.87 ± 0.17 %ID/g
lung uptake [3, 4]: 0.43 ± 0.23 %ID/g
muscle uptake [3, 4]: 0.10 ± 0.02 %ID/g
pancreas uptake [3, 4]: 0.16 ± 0.14 %ID/g
spleen uptake [3, 4]: 0.18 ± 0.10 %ID/g
stomach uptake [3, 4]: 0.88 ± 0.41 %ID/g
testes uptake [3, 4]: 0.14 ± 0.04 %ID/g
tumor uptake ([3]; 1 h after injection, unblocked, listed as 6): 11.9 ± 2.3 %ID/g
tumor uptake ([3]; 1 h after injection, unblocked, listed as [18F]6): 11.94 ± 2.29 %ID/g
tumor uptake [3, 4]: 0.37 ± 0.10 %ID/g
SMILES: O=C(O)CC[C@H](NC(=O)N[C@@H](CCCCNC(=O)[C@H](Cc1ccc2ccccc2c1)NC(=O)[C@H]1CC[C@H](CNC(=O)Cn2cc(C[n+]3ccc([B-](F)(F)F)cc3)nn2)CC1)C(=O)O)C(=O)O [^18F-6]
intestinal activity compared with ^18F-DCFPyL ([3]; 1 h after injection): significantly higher intestinal activity than ^18F-DCFPyL
